What is called pIC50 is the IC50 on a negative log10 scale, so that one unit is a factor of ten.

In this assay the target is T1, human PKCθ full length enzyme (Homo sapiens, UniProt Q04759).
T1 construct: human PKCθ full length enzyme (Panvera Cat# P2996); purchased Panvera P2996
Kind of assay: PKCθ IMAP assay (fluorescence polarization). The class given is biochemical. How it is done:
The reaction buffer was prepared by diluting the 5× stock reaction buffer and adding DTT to obtain a concentration of 3.0 mM. […] The final concentration of compound was 2× and 10% DMSO. DMSO was added to the rest of the master mix to increase the concentration to 10%. 10 μl of the master mix containing 10% DMSO was added to the rest of the wells on the plate except the 2nd column. 20 μl was transferred from the first column to the 2nd column. The compounds were serially diluted in 2:1 ratio starting from the 2nd column. A 2× ([…]) PKCθ solution was made in the reaction buffer. 10 μl of the PKCθ solution was added to every well to achieve these final concentrations: PKCθ—1 nM; ATP—6 μM; peptide—100 nM; DMSO—5%. Samples were incubated for 25 minutes at room temperature. The binding reagent was prepared by diluting the beads in 1× binding buffer to 800:1. 50 μl of the binding reagent was added to every well and incubated for 20 minutes. FP was measured using Envision2100 (PerkinElmer Life Sciences). Wells with no ATPs and wells with no enzymes were used as controls.
Background: In fluorescence polarisation assays a small probe gives low polarisation when free and higher when bound to something large.

[1] abbreviates: human PKCθ full length enzyme, IMAP, average value, read-out: IC50 PKCθ IMAP.

The structures appear in SMILES notation. pIC50: −log10 of the molar value. Where two headings read alike, the source gives them in different places.

T1 sequence (Q04759 whole entry): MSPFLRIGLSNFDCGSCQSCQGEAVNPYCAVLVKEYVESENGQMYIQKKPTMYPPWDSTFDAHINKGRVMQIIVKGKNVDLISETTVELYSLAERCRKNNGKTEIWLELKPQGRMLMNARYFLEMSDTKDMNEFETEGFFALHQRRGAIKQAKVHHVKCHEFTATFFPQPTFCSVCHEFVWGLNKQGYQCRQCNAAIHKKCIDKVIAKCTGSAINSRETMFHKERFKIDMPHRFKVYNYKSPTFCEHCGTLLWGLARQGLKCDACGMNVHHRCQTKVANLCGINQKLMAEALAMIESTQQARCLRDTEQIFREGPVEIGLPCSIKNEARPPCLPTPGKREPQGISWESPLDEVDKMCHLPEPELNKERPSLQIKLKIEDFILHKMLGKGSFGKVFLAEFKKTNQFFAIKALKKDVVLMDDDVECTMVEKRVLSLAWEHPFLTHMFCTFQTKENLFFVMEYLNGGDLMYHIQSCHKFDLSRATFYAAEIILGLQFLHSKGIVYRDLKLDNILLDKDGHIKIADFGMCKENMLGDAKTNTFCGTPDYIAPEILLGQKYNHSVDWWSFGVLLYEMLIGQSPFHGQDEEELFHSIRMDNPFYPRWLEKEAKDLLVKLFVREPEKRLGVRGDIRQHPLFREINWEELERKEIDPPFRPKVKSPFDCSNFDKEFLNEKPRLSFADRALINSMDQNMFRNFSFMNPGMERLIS

Turning to `N#Cc1cncc(-c2cccc(-c3ccc(C(=O)NCc4cccnc4)cc3)c2)c1Nc1ccc2[nH]ccc2c1` [Compound 213, 3′-[5-cyano-4-(1H-indol-5-ylamino)pyridin-3-yl]-N-(pyridin-3-ylmethyl)biphenyl-4-carboxamide], under setting [1], the pIC50 is 6.57. Still for that read-out and setting: the value for `N#Cc1cncc(-c2cccc(-c3ccc(C(=O)NCc4ccncc4)cc3)c2)c1Nc1ccc2[nH]ccc2c1` [Compound 214, 3′-[5-cyano-4-(1H-indol-5-ylamino)pyridin-3-yl]-N-(pyridin-4-ylmethyl)biphenyl-4-carboxamide] was 6.60; that for `CCCCNC(=O)c1ccc(-c2cccc(-c3cncc(C#N)c3Nc3cccc4[nH]ccc34)c2)cc1` [Compound 215, N-butyl-3′-[5-cyano-4-(1H-indol-4-ylamino)pyridin-3-yl]biphenyl-4-carboxamide] was 7.22; that for `N#Cc1cncc(-c2cccc(-c3ccc(C(=O)NCCO)cc3)c2)c1Nc1cccc2[nH]ccc12` [Compound 216, 3′-[5-cyano-4-(1H-indol-4-ylamino)pyridin-3-yl]-N-(2-hydroxyethyl)biphenyl-4-carboxamide] was 7.30. Same read-out and setting: as for `COc1ccc(-c2cncc(C#N)c2Nc2ccc3[nH]ccc3c2C)cc1OC` [Compound 218, 5-(3,4-dimethoxyphenyl)-4-[(4-methyl-1H-indol-5-yl)amino]nicotinonitrile], the figure is 8.22. The same measure, in the same setting: as for `COc1ccc(-c2cncc(C#N)c2N(C)c2ccc3[nH]ccc3c2)cc1OC` [Compound 219, 5-(3,4-dimethoxyphenyl)-4-[1H-indol-5-yl(methyl)amino]nicotinonitrile], the figure is 6.57. For the molecule `COc1ccc(-c2cncc(C#N)c2-c2ccc3[nH]ccc3c2)cc1OC` [Compound 221, 5-(3,4-dimethoxyphenyl)-4-(1H-indol-5-yl)nicotinonitrile], the pIC50 was 5.76. In the case of `Cc1c(Nc2c(C#N)cncc2-c2cc3ccccc3o2)ccc2[nH]ccc12` [Compound 222, 5-(1-benzofuran-2-yl)-4-[(4-methyl-1H-indol-5-yl)amino]nicotinonitrile], under setting [1], the pIC50 was 9.00. For `N#Cc1cncc(-c2cc3cc(C=O)ccc3s2)c1Nc1cccc2[nH]ccc12` [Compound 223, 5-(5-formyl-1-benzothien-2-yl)-4-(1H-indol-4-ylamino)nicotinonitrile], the pIC50 under setting [1] is 8.22. On the same count and under the same terms, the value for `CN(C)Cc1ccc2sc(-c3cncc(C#N)c3Nc3cccc4[nH]ccc34)cc2c1` [Compound 224, 5-{5-[(dimethylamino)methyl]-1-benzothien-2-yl}-4-(1H-indol-4-ylamino)nicotinonitrile] was 8.40.

In the case of `N#Cc1cncc(-c2ccc(O)cc2)c1Nc1cccc2[nH]ccc12` [Compound 225, 5-(4-hydroxyphenyl)-4-(1H-indol-4-ylamino)nicotinonitrile], the pIC50 under setting [1] is 8.30. Still for that read-out and setting: as for `N#Cc1cncc(-c2ccc(OC[C@@H](N)Cc3ccccc3)cc2)c1Nc1cccc2[nH]ccc12` [Compound 226, 5-(4-{[(2S)-2-amino-3-phenylpropyl]oxy}phenyl)-4-(1H-indol-4-ylamino)nicotinonitrile], the figure is 8.52.

For `Cc1c(Nc2c(C#N)cncc2-c2cc3cc(C=O)ccc3s2)ccc2[nH]ccc12` [Compound 227, 5-(5-formyl-1-benzothien-2-yl)-4-[(4-methyl-1H-indol-5-yl)amino]nicotinonitrile], the pIC50 under setting [1] was 9.00. The same measure, in the same setting: as for `Cc1c(Nc2c(C#N)cncc2-c2cc3cc(CN4CCCCC4)ccc3s2)ccc2[nH]ccc12` [Compound 228, 4-[(4-methyl-1H-indol-5-yl)amino]-5-[5-(piperidin-1-ylmethyl)-1-benzothien-2-yl]nicotinonitrile], the figure is 8.70; as for `Cc1c(Nc2c(C#N)cncc2-c2cc3cc(CO)ccc3s2)ccc2[nH]ccc12` [Compound 229, 5-[5-(hydroxymethyl)-1-benzothien-2-yl]-4-[(4-methyl-1H-indol-5-yl)amino]nicotinonitrile], 8.10. The same measure, in the same setting: the value for `COc1ccc(-c2cncc(C#N)c2Nc2ccc3[nH]ccc3c2)cc1OCCN1CCOCC1` [Compound 230, 4-(1H-indol-5-ylamino)-5-[4-methoxy-3-(2-morpholin-4-ylethoxy)phenyl]nicotinonitrile] was 6.48; that for `COc1ccc(-c2cncc(C#N)c2Nc2ccc3[nH]ccc3c2)cc1OCCN1CCN(C)CC1` [Compound 231, 4-(1H-indol-5-ylamino)-5-{4-methoxy-3-[2-(4-methylpiperazin-1-yl)ethoxy]phenyl}nicotinonitrile] was 6.60; that for `COc1ccc(-c2cncc(C#N)c2Nc2ccc3[nH]ccc3c2)cc1OCCN1CCNCC1` [Compound 232, 4-(1H-indol-5-ylamino)-5-[4-methoxy-3-(2-piperazin-1-ylethoxy)phenyl]nicotinonitrile] was 6.70. Same read-out and setting: the value for `COc1ccc(-c2cncc(C#N)c2Nc2ccc3[nH]ccc3c2)cc1OCCN1CCSCC1` [Compound 233, 4-(1H-indol-5-ylamino)-5-[4-methoxy-3-(2-thiomorpholin-4-ylethoxy)phenyl]nicotinonitrile] was 6.74. On to `CCN1CCN(CCOc2cc(-c3cncc(C#N)c3Nc3ccc4[nH]ccc4c3)ccc2OC)CC1` [Compound 234, 5-{3-[2-(4-ethylpiperazin-1-yl)ethoxy]-4-methoxyphenyl}-4-(1H-indol-5-ylamino)nicotinonitrile], for which the pIC50 under setting [1] is 6.72.

Regarding `COc1ccc(-c2cncc(C#N)c2Nc2ccc3[nH]ccc3c2)cc1OCCN1CCCCC1` [Compound 235, 4-(1H-indol-5-ylamino)-5-[4-methoxy-3-(2-piperidin-1-ylethoxy)phenyl]nicotinonitrile], the pIC50 under setting [1] was 6.62. Same read-out and setting: as for `COc1ccc(-c2cncc(C#N)c2Nc2ccc3[nH]ccc3c2)cc1OCCN(C)C` [Compound 236, 5-{3-[2-(dimethylamino)ethoxy]-4-methoxyphenyl}-4-(1H-indol-5-ylamino)nicotinonitrile], the figure is 6.70; as for `COc1ccc(-c2cncc(C#N)c2Nc2ccc3[nH]ccc3c2)cc1OCCN(CCO)CCO` [Compound 237, 5-(3-{2-[bis(2-hydroxyethyl)amino]ethoxy}-4-methoxyphenyl)-4-(1H-indol-5-ylamino)nicotinonitrile], 5.36; as for `COc1ccc(-c2cncc(C#N)c2Nc2ccc3[nH]ccc3c2)cc1OCCN1CCC(O)CC1` [Compound 238, 5-{3-[2-(4-hydroxypiperidin-1-yl)ethoxy]-4-methoxyphenyl}-4-(1H-indol-5-ylamino)nicotinonitrile], 6.68. On the same count and under the same terms, as for `COc1ccc(-c2cncc(C#N)c2Nc2ccc3[nH]ccc3c2)cc1OCCNCc1cccnc1` [Compound 239, 4-(1H-indol-5-ylamino)-5-(4-methoxy-3-{2-[(pyridin-3-ylmethyl)amino]ethoxy}phenyl)nicotinonitrile], the figure is 7.10; as for `COc1ccc(-c2cncc(C#N)c2Nc2ccc3[nH]ccc3c2)cc1OCCNCc1ccncc1` [Compound 240, 4-(1H-indol-5-ylamino)-5-(4-methoxy-3-{2-[(pyridin-4-ylmethyl)amino]ethoxy}phenyl)nicotinonitrile], 7.10; as for `COc1ccc(-c2cncc(C#N)c2Nc2ccc3[nH]ccc3c2)cc1OCCNCc1ccccn1` [Compound 241, 4-(1H-indol-5-ylamino)-5-(4-methoxy-3-{2-[(pyridin-2-ylmethyl)amino]ethoxy}phenyl)nicotinonitrile], 7.10. Regarding `COc1ccc(-c2cncc(C#N)c2Nc2ccc3[nH]ccc3c2)cc1OCCNCCc1ccccc1` [Compound 242, 4-(1H-indol-5-ylamino)-5-(4-methoxy-3-{2-[(2-phenylethyl)amino]ethoxy}phenyl)nicotinonitrile], the pIC50 under setting [1] was 7.70.

With `COc1ccc(-c2cncc(C#N)c2Nc2ccc3[nH]ccc3c2)cc1OCCNC1CCCC1` [Compound 243, 5-{3-[2-(cyclopentylamino)ethoxy]-4-methoxyphenyl}-4-(1H-indol-5-ylamino)nicotinonitrile], the pIC50 under setting [1] was 6.64.

`COc1ccc(-c2cncc(C#N)c2Nc2ccc3[nH]ccc3c2)cc1OCCNC1CCCCC1` [Compound 244, 5-{3-[2-(cyclohexylamino)ethoxy]-4-methoxyphenyl}-4-(1H-indol-5-ylamino)nicotinonitrile]: the pIC50 under setting [1] is 6.77. Still for that read-out and setting: as for `COc1ccc(-c2cncc(C#N)c2Nc2ccc3[nH]ccc3c2)cc1OCCNCc1ccco1` [Compound 245, 5-(3-{2-[(2-furylmethyl)amino]ethoxy}-4-methoxyphenyl)-4-(1H-indol-5-ylamino)nicotinonitrile], the figure is 6.57; as for `COc1cc(Br)c(-c2cncc(C#N)c2Nc2ccc3[nH]ccc3c2)cc1OC` [Compound 246, 5-(2-bromo-4,5-dimethoxyphenyl)-4-(1H-indol-5-ylamino)nicotinonitrile], 6.80. For the molecule `COc1cc(Br)c(-c2cncc(C#N)c2Nc2ccc3[nH]ccc3c2C)cc1OC` [Compound 247, 5-(2-bromo-4,5-dimethoxyphenyl)-4-[(4-methyl-1H-indol-5-yl)amino]nicotinonitrile], the pIC50 under setting [1] is 7.00.

As to `COc1ccc(-c2cncc(C#N)c2Nc2cccc3[nH]ccc23)cc1OCCN1CCCCC1` [Compound 248, 4-(1H-indol-4-ylamino)-5-[4-methoxy-3-(2-piperidin-1-ylethoxy)phenyl]nicotinonitrile], the pIC50 under setting [1] is 7.30.
